Measurements taken from patent US9345705B2, “Compositions and methods for treating cancer” (Merck Sharp & Dohme Corp., priority 2011, dated 2016).
Where two headings read alike, the source gives them in different places.

How the values were obtained:
[1] = test system: LoVo xenograft tumors; assay: Pharmacodynamic DNA damage analysis (Western blot pCHK1 S345, IHC γH2AX) in xenograft tumors; format: in vivo, CD-1 Nu/Nu female mice; settings: 2 days BID, 60 mpk each agent
Procedure: CD-1 Nu/Nu female mice aged 5-6 weeks (Charles River Laboratories) were inoculated with 5×10^6 LoVo cells in 100 uL (1:1 Matrigel:PBS) subcutaneously (S.C.) into the right flank. […] Three animals from each group were sacrificed via carbon dioxide inhalation at 2 hours, 24 hours, or 48 hours after the 4th and final dose of the 2 day BID schedule. Tumors were resected, split roughly in half, and stored in 10% formalin for immunohistochemistry (IHC) or at −80° C. for Western blot analysis.

[2] = test system: A2058 melanoma cancer cell line; assay: Cell proliferation by ATP vialight, 9-point titrations with fixed concentrations of the complementary drug; format: cell-based, human; settings: for EC50: Homo sapiens, 72 hours
Procedure: To determine the ability of each drug to potentiate the activity of the other, Applicants performed 9-point titrations of each in the added presence of increasing, but fixed, concentrations of the complimentary drug (FIGS. 1A and 1B). Analysis of cell proliferation was determined after 72 hours (3 days) incubation with either DMSO (as control) or the indicated concentrations of MK-1775 and MK-8776 by ATP vialight (Promega). […] EC50 concentrations were calculated (GraphPad Prism, GraphPad Software, San Diego, Calif.).
Inhibition of WEE1 and CHK1 lead to aberrant CDK1 and/or CDK2 activity, and without wishing to be bound by any theory, this is thought to underlie the potential of either target for having deleterious effects on actively dividing tumor cells. Because of the possible overlap in the MK-1775 and MK-8776 mechanisms of action, Applicants carried out […] synergy experiments.

[3] = test system: LoVo xenograft tumors; assay: Anti-tumor efficacy in xenograft model of human colorectal cancer; format: in vivo, CD-1 Nu/Nu female mice; settings: study day 18, 3 cycles of 2 day BID dosing, 50 mpk, single agent plus vehicle
Procedure: The anti-tumor efficacy of this combination was assessed in a xenograft model of human colorectal cancer. CD-1 Nu/Nu female mice aged 5-6 weeks (Charles River Laboratories) were inoculated with 5×10^6 LoVo cells in 100 uL (1:1 Matrigel:PBS) S.C. into the right flank. […] Tumor volume and body weights were recorded bi-weekly.

[4] = test system: LoVo cells; assay: DNA damage (γH2AX) by flow cytometry in LoVo cells; format: cell-based, human
Procedure: A2058 melanoma cancer cells were treated with 125 nM MK-1775, 150 nM MK-8776, or both. HT-29 colorectal cancer cells were treated with 125 nM MK-1775, 300 nM MK-8776, or both. LoVo colorectal cancer cells were treated with 40 nM MK-1775, 75 nM MK-8776, or both. […] FIG. 2B depicts DNA damage and was scored at either 24 or 48 hours as the percentage of cells positive for the DNA damage marker γH2AX (histone H2AX phosphorylated at serine 139) determined by flow cytometry.

[5] = test system: A2058 melanoma, HT-29 colorectal and LoVo colorectal cancer cells; assay: Growth assay (ATP ViaLight) at concentrations with negligible single-agent effect; format: cell-based, human
Procedure: A2058 melanoma cancer cells were treated with 125 nM MK-1775, 150 nM MK-8776, or both. HT-29 colorectal cancer cells were treated with 125 nM MK-1775, 300 nM MK-8776, or both. LoVo colorectal cancer cells were treated with 40 nM MK-1775, 75 nM MK-8776, or both. FIG. 2A depicts cell proliferation and was scored at either 48 or 72 hours as the percentage of ATP ViaLight® (ViaLight® Assay, Lonza, Basel, Switzerland) of treated samples relative to DMSO treated controls.

Row | reduction of MK-1775 EC50 ([2]; A2058 cells, addition of 150 nM MK-8776) [fold] | EC50 ([2]; A2058 cells, MK-1775 alone, read-out: average EC50 of growth inhibition) [nM] | EC50 ([2]; A2058 cells, addition of 150 nM MK-8776, read-out: average MK-1775 EC50 with added MK-8776) [nM] | shift of MK-8776 EC50 curves [2] | Compound | pCHK1 S345 by Western blot at 2 hours after the final dose [1] | pCHK1 S345 effect at 24 hours after the final dose [1] | shift in the MK-1775 response curve (sham synergy experiment) ([2]; MK-1775 titrated over 75 nM of the labelled drug) | T/C [3] [%] | cells with detectable γH2AX ([4]; LoVo cells, 24 hour treatment, 40 nM MK-1775, 75 nM MK-8776, or both) [%] | effect in growth assay, single agent ([5]; A2058: 125 nM MK-1775, 150 nM MK-8776, HT-29: 125 nM, 300 nM, LoVo: 40 nM, 75 nM, 48 or 72 hours) | effect on A2058 proliferation by itself [2] | maximum cell growth inhibition at the highest concentration of MK-8776 [2] | shift in the MK-1775 response curve (sham synergy experiment) [2] | shift of the MK-1775 response curve caused by added drug [2] | cells with detectable γH2AX [4] [%] | effect in growth assay, single agent [5]
1 | 5 | 225 | 45 |  | C=CCn1c(=O)c2cnc(Nc3ccc(N4CCN(C)CC4)cc3)nc2n1-c1cccc(C(C)(C)O)n1 [MK-1775, 2-allyl-1-[6-(1-hydroxy-1-methylethyl)pyridin-2-yl]-6-{[4-(4-methylpiperazin-1-yl)phenyl]amino}-1,2-dihydro-3H-pyrazolo[3,4-d]pyrimidin-3-one] | transient increase | lost | did not cause a shift in the response curve | 42 | 6 | negligible effect |  |  |  |  |  | 
2 |  |  |  | leftward shifts in EC50 curves | Cn1cc(-c2cnn3c(N)c(Br)c([C@@H]4CCCNC4)nc23)cn1 [MK-8776, (R)-(−)-6-Bromo-3-(1-methyl-1H-pyrazol-4-yl)-5-piperidin-3-yl-pyrazolo[1,5-a]pyrimidin-7-ylamine] | transient increase | lost |  | 52 |  |  | do not effect A2058 proliferation | dose-dependent increase | robust potency shift | leftward shift of the MK-1775 response curve | 5 | negligible effect
